{"source": "patent US10526287B2", "about": "“LSD1 inhibitors and uses thereof” (Constellation Pharmaceuticals, Inc., priority 2015, dated 2020)", "target": "LSD1 (Homo sapiens, UniProt O60341)", "assay": "Biochemical assay for LSD1 activity (LSD1 demethylase TR-FRET)", "key": {"[1]": {"conditions": "Table 6, biotinylated H3K4me1 peptide, 50 minutes at room temperature, TR-FRET, read-out: LSD1_Pep_TR-FRET_1.0 (IC50 T50)"}, "[2]": {"conditions": "Table 7, biotinylated H3K4me1 peptide, 50 minutes at room temperature, TR-FRET, read-out: LSD1_Pep_TR-FRET_1.0 (IC50 T50)"}, "[3]": {"conditions": "Table 5, biotinylated H3K4me1 peptide, 50 minutes at room temperature, TR-FRET, read-out: LSD1_Pep_TR-FRET_1.0 (IC50 T50)"}}, "note": "Structures can show the parent of a compound that is named as a salt. Where two headings read alike, the source gives them in different places.", "data": [{"smiles": "CC/C(=C\\c1ccccc1)[C@@H]1C[C@H]1NCC1CCN(Cc2ccc(C(=O)OC(C)(C)C)cc2)CC1", "note": "(racemic) [Compound 127]", "values": [{"measurement": "IC50", "setting": "[1]", "value": "100 to 1000", "unit": "nM"}]}, {"smiles": "CC/C(=C\\c1ccccc1)[C@@H]1C[C@H]1NCC1CCN(Cc2ccc(C(=O)O)cc2)CC1", "note": "(racemic) [Compound 163, 4-((4-((((trans)-2-((E)-1-phenylbut-1-en-2-yl)cyclopropyl)amino)methyl)piperidin-1-yl)methyl)benzoic acid bis trifluoroacetic acid salt]", "values": [{"measurement": "IC50", "setting": "[1]", "value": "< 100", "unit": "nM"}]}, {"smiles": "CC/C(=C\\c1ccccc1)[C@@H]1C[C@H]1N[C@H]1CC[C@H](NCC2(CO)COC2)CC1", "note": "(single isomer, unassigned) [Compound 161, (3-((((trans)-4-(((trans)-2-((E)-1-phenylbut-1-en-2-yl)cyclopropyl)amino)cyclohexyl)amino)methyl)oxetan-3-yl)methanolbis(trifluoroacetic acid salt)]", "values": [{"measurement": "IC50", "setting": "[1]", "value": "< 100", "unit": "nM"}]}, {"smiles": "CC(C)/C(=C\\c1ccccc1)[C@@H]1C[C@H]1NC1CCN(Cc2ccc(C(=O)O)cc2)CC1", "note": "(racemic) [Compound 179, 4-((4-(((trans)-2-((E)-3-methyl-1-phenylbut-1-en-2-yl)cyclopropyl)amino)piperidin-1-yl)methyl)benzoic Acid bis(trifluoroacetic Acid) Salt]", "values": [{"measurement": "IC50", "setting": "[1]", "value": "< 100", "unit": "nM"}]}, {"smiles": "CC(=Cc1ccc(C#N)cc1)C1CC1N", "note": "(stereo not shown) [Compound 129, 4-(2-(2-aminocyclopropyl)prop-1-en-1-yl)benzonitrile Hydrochloride]", "values": [{"measurement": "IC50", "value": "> 10000", "unit": "nM"}]}, {"smiles": "CC/C(=C\\c1ccccc1)[C@@H]1C[C@H]1NC1CC2(C1)CN(Cc1cnc(C(=O)O)cn1)C2", "note": "(single isomer, unassigned) [Compound 256]", "values": [{"measurement": "IC50", "setting": "[2]", "value": "< 100", "unit": "nM"}]}, {"smiles": "CC/C(=C\\c1ccccc1)[C@@H]1C[C@H]1N[C@H]1CC[C@H](NCC(C)(C)C#N)CC1", "note": "(single isomer, unassigned) [Compound 157, 2,2-dimethyl-3-(((trans)-4-(((trans)-2-((E)-1-phenylbut-1-en-2-yl)cyclopropyl)amino)cyclohexyl)amino)propanenitrile bis(trifluoroacetic acid salt)]", "values": [{"measurement": "IC50", "setting": "[1]", "value": "< 100", "unit": "nM"}]}, {"smiles": "C/C(=C\\c1ccccc1)[C@@H]1C[C@H]1NC1CCN(CCOCC(=O)O)CC1", "note": "(racemic) [Compound 204, 2-(2-(4-(((trans)-2-((E)-1-phenylprop-1-en-2-yl)cyclopropyl)amino)piperidin-1-yl)ethoxy)acetic Acid Dihydrochloride]", "values": [{"measurement": "IC50", "setting": "[1]", "value": "> 10000", "unit": "nM"}]}, {"smiles": "CC/C(=C\\c1ccccc1)[C@@H]1C[C@H]1N[C@H]1CC[C@@H](NCC(C)(C)C#N)CC1", "note": "(single isomer, unassigned) [Compound 158, 2.2-dimethyl-3-(((cis)-4-(((trans)-2-((E)-1-phenylbut-1-en-2-yl)cyclopropyl)amino)cyclohexyl)amino)propanenitrile bis(trifluoroacetic acid salt)]", "values": [{"measurement": "IC50", "setting": "[1]", "value": "< 100", "unit": "nM"}]}, {"smiles": "CC/C(=C\\c1ccccc1)[C@@H]1C[C@H]1N[C@H]1CC[C@H](NCCO)CC1", "note": "(single isomer, unassigned) [Compound 159, 2-(((trans)-4-(((trans)-2-((E)-1-phenylbut-1-en-2-yl)cyclopropyl)amino)cyclohexyl)amino)ethan-1-ol bis(trifluoroacetic acid salt)]", "values": [{"measurement": "IC50", "setting": "[1]", "value": "< 100", "unit": "nM"}]}, {"smiles": "C/C(=C\\c1ccccc1)[C@@H]1C[C@H]1NC1CCN(CC(=O)O)CC1", "note": "(racemic) [Compound 194, 2-(4-(((trans)-2-((E)-1-phenylprop-1-en-2-yl)cyclopropyl)amino)piperidin-1-yl)acetic Acid Dihydrochloride]", "values": [{"measurement": "IC50", "setting": "[1]", "value": "< 100", "unit": "nM"}]}, {"smiles": "CCS(=O)(=O)CCN1CCC(CNC2CC2/C=C/c2ccccc2)CC1", "note": "(stereo not shown) [Compound 113]", "values": [{"measurement": "IC50", "setting": "[3]", "value": "< 100", "unit": "nM"}]}, {"smiles": "CC/C(=C\\c1ccccc1)[C@@H]1C[C@H]1NC1CC2(C1)CN(Cc1ccc(C(=O)O)nc1)C2", "note": "(single isomer, unassigned) [Compound 251]", "values": [{"measurement": "IC50", "setting": "[2]", "value": "< 100", "unit": "nM"}]}, {"smiles": "C/C(=C\\c1ccccc1)[C@@H]1C[C@H]1NC1CCN(CCc2ccc(C(=O)O)cc2)CC1", "note": "(racemic) [Compound 206, 4-(2-(4-(((trans)-2-((E)-1-phenylprop-1-en-2-yl)cyclopropyl)amino)piperidin-1-yl)ethyl)benzoic Acid Dihydrochloride]", "values": [{"measurement": "IC50", "setting": "[1]", "value": "100 to 1000", "unit": "nM"}]}, {"smiles": "CC/C(=C\\c1ccccc1)[C@@H]1C[C@H]1NC1CC2(C1)CN(Cc1ccc(C(=O)O)cc1)C2", "note": "(racemic) [Compound 226, 4-((6-(((trans)-2-((E)-1-phenylbut-en-2-yl)cyclopropyl)amino)-2-azaspiro[3.3]heptan-2-yl)methyl)benzoic acid bis trifluoroacetate]", "values": [{"measurement": "IC50", "setting": "[2]", "value": "< 100", "unit": "nM"}]}, {"smiles": "COCCNC1CCC(N[C@@H]2C[C@H]2/C(C)=C/c2ccccc2)CC1", "note": "(single isomer, unassigned) [Compound 143, (trans)-N1-(2-methoxyethyl)-N4-((trans)-2-((E)-1-phenylprop-1-en-2-yl)cyclopropyl)cyclohexane-1,4-diamine bis(trifluoroacetic acid salt)]", "values": [{"measurement": "IC50", "setting": "[1]", "value": "< 100", "unit": "nM"}]}, {"smiles": "CC/C(=C\\c1ccccc1)[C@@H]1C[C@H]1N[C@H]1CC[C@H](NCc2ccc(C(=O)O)nc2)CC1", "note": "(single isomer, unassigned) [Compound 260, 5-((((trans)-4-(((1R,2S or 1S,2R)-2-((E)-1-phenylbut-1-en-2-yl)cyclopropyl)amino)cyclohexyl)amino)methyl)picolinic acid bis trifluoroacetate]", "values": [{"measurement": "IC50", "setting": "[2]", "value": "< 100", "unit": "nM"}]}, {"smiles": "CC/C(=C\\c1ccccc1)[C@@H]1C[C@H]1NC1CC2(C1)CN(CCC(=O)O)C2", "note": "(racemic) [Compound 230]", "values": [{"measurement": "IC50", "setting": "[2]", "value": "< 100", "unit": "nM"}]}, {"smiles": "F/C(=C\\c1ccccc1)C1CC1NCC1CCNCC1", "note": "(racemic) [Compound 108, Racemic 2-((Z)-1-fluoro-2-phenylvinyl)-N-(piperidin-4-ylmethyl)cyclopropanamine Dihydrochloride]", "values": [{"measurement": "IC50", "setting": "[3]", "value": "100 to 1000", "unit": "nM"}]}, {"smiles": "C/C(=C\\c1ccccc1)[C@@H]1C[C@H]1NC1CCN(CCNS(C)(=O)=O)CC1", "note": "(racemic) [Compound 205, N-(2-(4-(((trans)-2-(E)-1-phenylprop-1-en-2-yl)cyclopropyl)amino)piperidin-1-yl)ethyl)methanesulfonamide Dihydrochloride]", "values": [{"measurement": "IC50", "setting": "[1]", "value": "< 100", "unit": "nM"}]}, {"smiles": "CC/C(=C\\c1ccccc1)[C@@H]1C[C@H]1NC[C@H]1CC[C@H](NCC(C)(C)C(=O)O)CC1", "note": "(racemic) [Compound 232]", "values": [{"measurement": "IC50", "setting": "[2]", "value": "100 to 1000", "unit": "nM"}]}, {"smiles": "C/C(=C\\c1ccccc1)[C@@H]1C[C@H]1N[C@H]1CC[C@@H](NCCC(N)=O)CC1", "note": "(single isomer, unassigned) [Compound 152, 3-(((cis)-4-(((trans)-2-((E)-1-phenylprop-1-en-2-yl)cyclopropyl)amino)cyclohexyl)amino)propanamide bis(trifluoroacetic acid) salt]", "values": [{"measurement": "IC50", "setting": "[1]", "value": "< 100", "unit": "nM"}]}, {"smiles": "CC/C(=C\\c1ccccc1)[C@@H]1C[C@H]1N[C@H]1CC[C@H](N)CC1", "note": "(racemic) [Compound 169, (trans)-N^1-((trans)-2-((E)-1-phenylbut-1-en-2-yl)cyclopropyl)cyclohexane-1,4-diamine Dihydrochloride]", "values": [{"measurement": "IC50", "setting": "[1]", "value": "< 100", "unit": "nM"}]}, {"smiles": "COCC/C(=C\\c1ccccc1)[C@@H]1C[C@H]1N[C@H]1CC[C@H](NCC(C)(C)C(=O)O)CC1", "note": "(racemic) [Compound 184, 3-(((trans)-4-(((trans)-2-((E)-4-methoxy-1-phenylbut-1-en-2-yl)cyclopropyl)amino)cyclohexyl)amino)-2,2-dimethylpropanoic Acid bis(trifluoroacetic Acid) Salt]", "values": [{"measurement": "IC50", "setting": "[1]", "value": "< 100", "unit": "nM"}]}, {"smiles": "C/C(=C\\c1ccc(-c2cnn(C)c2)cc1)[C@@H]1C[C@H]1NC1CCNCC1", "note": "(racemic) [Compound 175]", "values": [{"measurement": "IC50", "setting": "[1]", "value": "< 100", "unit": "nM"}]}, {"smiles": "C/C(=C\\c1ccccc1)[C@@H]1C[C@H]1NC1CCN(Cc2ccc[nH]c2=O)CC1", "note": "(racemic) [Compound 134, 3-((4-(((trans)-2-((E)-1-phenylprop-1-en-2-yl)cyclopropyl)amino)piperidin-1-yl)methyl)pyridin-2(1H)-one bis(2,2,2-trifluoroacetate)]", "values": [{"measurement": "IC50", "setting": "[1]", "value": "< 100", "unit": "nM"}]}, {"smiles": "CC/C(=C\\c1ccccc1)[C@@H]1C[C@H]1NC1CC2(C1)CN(CC(N)=O)C2", "note": "(single isomer, unassigned) [Compound 268, 2-(6-(((1R,2S or 1S,2R)-2-(E)-1-phenylbut-1-en-2-yl)cyclopropyl)amino)-2-azaspiro[3.3]heptan-2-yl)acetamide Bis Trifluoroacetate (Single Stereoisomer)]", "values": [{"measurement": "IC50", "setting": "[2]", "value": "< 100", "unit": "nM"}]}, {"smiles": "C/C(=C\\c1ccccc1)[C@@H]1C[C@H]1N[C@H]1CC[C@H](N(C)C)CC1", "note": "(single isomer, unassigned) [Compound 138, (trans)-N^1,N^1-dimethyl-N^4-((trans)-2-((E)-1-phenylprop-1-en-2-yl)cyclopropyl)cyclohexane-1,4-diamine]", "values": [{"measurement": "IC50", "setting": "[1]", "value": "< 100", "unit": "nM"}]}, {"smiles": "CCC1(NC2CCNCC2)CC1/C(C)=C/c1ccccc1", "note": "(stereo not shown) [Compound 174, bis(trifluoroacetic Acid) Salt]", "values": [{"measurement": "IC50", "setting": "[1]", "value": "< 100", "unit": "nM"}]}, {"smiles": "C/C(=C\\c1ccccc1)[C@@H]1C[C@H]1N[C@H]1CC[C@H](NCCC#N)CC1", "note": "(single isomer, unassigned) [Compound 155, 3-(((trans)-4-(((trans)-2-((E)-1-phenylprop-1-en-2-yl)cyclopropyl)amino)cyclohexyl)amino)propanenitrile bis(trifluoroacetic acid) salt]", "values": [{"measurement": "IC50", "setting": "[1]", "value": "< 100", "unit": "nM"}]}, {"smiles": "COCCN[C@H]1CC[C@@H](N[C@@H]2C[C@H]2/C(C)=C/c2ccccc2)CC1", "note": "(single isomer, unassigned) [Compound 144, (cis)-N1-(2-methoxyethyl)-N4-((trans)-2-((E)-1-phenylprop-1-en-2-yl)cyclopropyl)cyclohexane-1,4-diamine bis(trifluoroacetic acid) salt]", "values": [{"measurement": "IC50", "setting": "[1]", "value": "< 100", "unit": "nM"}]}, {"smiles": "C/C(=C\\c1ccccc1)[C@@H]1C[C@H]1NC1CCN(Cc2ccc(C(=O)O)nc2)CC1", "note": "(racemic) [Compound 200, 5-((4-(((trans)-2-((E)-1-phenylprop-1-en-2-yl)cyclopropyl)amino)piperidin-1-yl)methyl)picolinic Acid Dihydrochloride]", "values": [{"measurement": "IC50", "setting": "[1]", "value": "< 100", "unit": "nM"}]}, {"smiles": "CC/C(=C\\c1ccccc1)[C@@H]1C[C@H]1NC1CC2(C1)CN(CC(C)(C)C(=O)O)C2", "note": "(racemic) [Compound 229]", "values": [{"measurement": "IC50", "setting": "[2]", "value": "< 100", "unit": "nM"}]}, {"smiles": "CC/C(=C\\c1ccccc1)[C@@H]1C[C@H]1NCC1(C)CNC1", "note": "(racemic) [Compound 243]", "values": [{"measurement": "IC50", "setting": "[2]", "value": "< 100", "unit": "nM"}]}]}
